Assay results reported in US8415469B2, “Compounds and methods for kinase modulation, and indications therefor” (Plexxikon Inc., priority 2005, dated 2013).

How the values were obtained:
Format in all cases: biochemical
Akt3 = Akt3 (Homo sapiens, UniProt Q9Y243); assay: AlphaScreen kinase assay, Akt3; settings: read-out: IC50, activity toward kinase Akt3
Source text: AlphaScreen assay was used to screen additional kinases. The assay is similarly dependent on the phosphorylation of a peptide substrate. In this assay, an antibody that recognizes phosphorylated substrate is bound to an acceptor bead. The peptide substrate is attached to biotin, which binds to a donor head that contains streptavidin. Thus phosphorylated substrate is bound by antibody and streptavidin, bringing the donor and acceptor heads into close proximity when kinase is not inhibited. The donor produces singlet oxygen which results in emission from the acceptor when they are in close proximity. Conversely, when kinase is inhibited, the donor and acceptor beads are not associated and the emission from the acceptor is reduced.
AlphaScreen assays were done using compounds dissolved in DMSO to a concentration of 20 mM. The compounds were diluted accordingly to the desired final concentrations in each sample well, using 1:3 serial dilution for a total of 8 concentration points.

Flt1 = biological target: T1, Flt1 (Homo sapiens, UniProt P17948); assay: AlphaScreen kinase assay, Flt1; settings: read-out: IC50, activity toward kinase Flt1
T1 construct: P1826.pETN6 BI-PTP FLT1 M799-D1165-X WT; His6 (N); made in house; host or cells: E. coli (PTP1B co-expressed)
T1 sequence (P17948 with tags, fused parts or gaps): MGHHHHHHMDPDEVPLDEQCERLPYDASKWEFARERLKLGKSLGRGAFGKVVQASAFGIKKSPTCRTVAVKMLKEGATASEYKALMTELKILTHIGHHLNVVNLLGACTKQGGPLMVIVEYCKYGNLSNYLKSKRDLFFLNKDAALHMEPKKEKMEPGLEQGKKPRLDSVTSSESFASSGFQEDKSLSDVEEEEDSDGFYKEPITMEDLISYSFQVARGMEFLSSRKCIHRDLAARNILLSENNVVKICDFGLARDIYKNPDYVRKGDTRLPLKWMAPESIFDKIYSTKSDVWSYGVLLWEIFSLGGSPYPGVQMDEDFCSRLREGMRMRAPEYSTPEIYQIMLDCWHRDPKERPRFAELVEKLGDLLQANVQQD

Ret = biological target: T2, Ret (Homo sapiens, UniProt P07949); assay: AlphaScreen kinase assay, Ret; settings: read-out: IC50, activity toward kinase Ret
T2 construct: P1378.pET-SF BI-PTP RET H661-R1012 HIS; made in house
T2 sequence (P07949 with tags, fused parts or gaps): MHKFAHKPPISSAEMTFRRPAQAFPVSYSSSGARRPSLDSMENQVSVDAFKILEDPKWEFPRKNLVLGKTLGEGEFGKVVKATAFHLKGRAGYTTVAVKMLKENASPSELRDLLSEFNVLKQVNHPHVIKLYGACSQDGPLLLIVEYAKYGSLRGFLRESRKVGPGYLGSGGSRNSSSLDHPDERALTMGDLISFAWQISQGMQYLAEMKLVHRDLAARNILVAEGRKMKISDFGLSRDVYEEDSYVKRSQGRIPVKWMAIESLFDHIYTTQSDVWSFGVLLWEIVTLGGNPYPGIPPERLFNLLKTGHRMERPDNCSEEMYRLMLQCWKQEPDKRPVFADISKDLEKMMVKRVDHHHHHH

c-Raf-1 = biological target: T3, c-Raf-1 (Homo sapiens, UniProt P04049); assay: AlphaScreen kinase assay, c-Raf-1; settings: read-out: IC50, activity toward kinase c-Raf-1
T3 construct: purchased Upstate Biotechnology
T3 sequence (P04049 whole entry): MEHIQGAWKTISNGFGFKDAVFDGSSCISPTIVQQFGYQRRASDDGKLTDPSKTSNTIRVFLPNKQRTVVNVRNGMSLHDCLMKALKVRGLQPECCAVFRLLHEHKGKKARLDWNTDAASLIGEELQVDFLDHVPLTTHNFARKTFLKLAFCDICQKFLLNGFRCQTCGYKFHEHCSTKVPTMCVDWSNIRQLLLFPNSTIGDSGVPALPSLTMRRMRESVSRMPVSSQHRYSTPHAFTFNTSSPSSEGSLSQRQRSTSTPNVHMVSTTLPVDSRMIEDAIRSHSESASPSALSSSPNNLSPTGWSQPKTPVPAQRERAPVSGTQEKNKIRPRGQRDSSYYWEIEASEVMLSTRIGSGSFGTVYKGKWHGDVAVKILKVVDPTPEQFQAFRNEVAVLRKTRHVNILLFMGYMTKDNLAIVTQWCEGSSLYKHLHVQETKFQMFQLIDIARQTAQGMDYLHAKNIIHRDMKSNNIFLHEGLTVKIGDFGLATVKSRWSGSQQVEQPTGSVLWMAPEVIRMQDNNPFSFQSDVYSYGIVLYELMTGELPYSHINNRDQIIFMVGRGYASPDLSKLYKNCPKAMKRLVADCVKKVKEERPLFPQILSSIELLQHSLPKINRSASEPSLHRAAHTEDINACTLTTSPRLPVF

B-Raf V600E = biological target: T4, B-Raf V600E (Homo sapiens, UniProt P15056, V600E); assay: AlphaScreen kinase assay, B-Raf V600E; settings: read-out: IC50, activity toward kinase B-Raf V600E
T4 construct: P4254. pFastBacBD-CDC37 BRAF D437-K722-X, V600E; His6 with pFastBac HT leader (TEV site) (N); made in house; host or cells: Sf9 (baculovirus; chaperone CDC37 co-expressed)
T4 sequence (P15056 with tags, fused parts or gaps V600E): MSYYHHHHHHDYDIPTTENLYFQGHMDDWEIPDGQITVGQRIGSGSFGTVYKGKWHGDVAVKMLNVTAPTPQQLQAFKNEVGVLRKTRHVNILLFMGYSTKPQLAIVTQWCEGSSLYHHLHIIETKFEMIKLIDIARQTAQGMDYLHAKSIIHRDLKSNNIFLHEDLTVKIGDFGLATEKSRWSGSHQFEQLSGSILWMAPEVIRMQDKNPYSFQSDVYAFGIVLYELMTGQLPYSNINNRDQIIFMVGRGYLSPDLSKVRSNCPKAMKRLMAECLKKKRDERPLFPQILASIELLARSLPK

B-Raf = biological target: T5, B-Raf (Homo sapiens, UniProt P15056); assay: AlphaScreen kinase assay, B-Raf; settings: read-out: IC50, activity toward kinase B-Raf
T5 construct: purchased Upstate Biotechnology
T5 sequence (P15056 whole entry): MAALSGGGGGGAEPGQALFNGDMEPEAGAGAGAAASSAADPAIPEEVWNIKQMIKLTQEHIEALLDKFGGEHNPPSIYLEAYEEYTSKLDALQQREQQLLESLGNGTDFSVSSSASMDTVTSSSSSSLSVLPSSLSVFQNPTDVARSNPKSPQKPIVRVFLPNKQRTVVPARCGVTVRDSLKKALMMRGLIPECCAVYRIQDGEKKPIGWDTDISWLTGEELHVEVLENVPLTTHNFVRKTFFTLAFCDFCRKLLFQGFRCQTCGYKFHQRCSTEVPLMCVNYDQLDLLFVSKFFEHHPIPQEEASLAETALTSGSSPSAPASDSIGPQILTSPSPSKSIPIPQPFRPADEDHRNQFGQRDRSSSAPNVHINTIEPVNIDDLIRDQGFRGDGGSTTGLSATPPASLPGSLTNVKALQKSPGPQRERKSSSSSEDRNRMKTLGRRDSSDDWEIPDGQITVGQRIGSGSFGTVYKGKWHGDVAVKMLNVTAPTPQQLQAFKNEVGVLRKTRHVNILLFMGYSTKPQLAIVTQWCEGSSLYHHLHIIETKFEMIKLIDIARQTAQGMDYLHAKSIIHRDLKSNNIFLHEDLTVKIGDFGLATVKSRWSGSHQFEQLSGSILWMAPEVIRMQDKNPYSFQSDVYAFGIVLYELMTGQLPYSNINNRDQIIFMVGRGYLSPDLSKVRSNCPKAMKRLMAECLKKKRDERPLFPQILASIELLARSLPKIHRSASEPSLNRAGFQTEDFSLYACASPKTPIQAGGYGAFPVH

FGFR1 = biological target: T6, FGFR1 (Homo sapiens, UniProt P11362, C488A/C584S); assay: AlphaScreen kinase assay, FGFR1; settings: read-out: IC50, activity toward kinase FGFR
T6 construct: P1351.pET N6 BI-PTP FGFR A458-E765-X C488A, C584S; made in house; host or cells: E. coli (PTP1B co-expressed)
T6 sequence (P11362 458-765 C488A/C584S): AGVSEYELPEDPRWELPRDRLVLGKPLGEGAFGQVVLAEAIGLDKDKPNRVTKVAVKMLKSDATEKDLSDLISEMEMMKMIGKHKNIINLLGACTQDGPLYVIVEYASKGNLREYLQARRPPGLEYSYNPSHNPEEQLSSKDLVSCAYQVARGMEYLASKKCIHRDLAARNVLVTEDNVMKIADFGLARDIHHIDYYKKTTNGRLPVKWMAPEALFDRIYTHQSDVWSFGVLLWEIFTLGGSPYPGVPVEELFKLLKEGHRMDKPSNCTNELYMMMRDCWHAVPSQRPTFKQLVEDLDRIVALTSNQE

MAP4K4 = MAP4K4 (Homo sapiens, UniProt O95819); assay: AlphaScreen kinase assay, MAP4K4; settings: read-out: IC50, activity toward kinase MAP4K4
Pyk2 = biological target: T7, Pyk2 (Homo sapiens, UniProt Q14289); assay: AlphaScreen kinase assay, Pyk2; settings: read-out: IC50, activity toward kinase Pyk2
T7 construct: purchased Upstate Biotechnology
T7 sequence (Q14289 whole entry): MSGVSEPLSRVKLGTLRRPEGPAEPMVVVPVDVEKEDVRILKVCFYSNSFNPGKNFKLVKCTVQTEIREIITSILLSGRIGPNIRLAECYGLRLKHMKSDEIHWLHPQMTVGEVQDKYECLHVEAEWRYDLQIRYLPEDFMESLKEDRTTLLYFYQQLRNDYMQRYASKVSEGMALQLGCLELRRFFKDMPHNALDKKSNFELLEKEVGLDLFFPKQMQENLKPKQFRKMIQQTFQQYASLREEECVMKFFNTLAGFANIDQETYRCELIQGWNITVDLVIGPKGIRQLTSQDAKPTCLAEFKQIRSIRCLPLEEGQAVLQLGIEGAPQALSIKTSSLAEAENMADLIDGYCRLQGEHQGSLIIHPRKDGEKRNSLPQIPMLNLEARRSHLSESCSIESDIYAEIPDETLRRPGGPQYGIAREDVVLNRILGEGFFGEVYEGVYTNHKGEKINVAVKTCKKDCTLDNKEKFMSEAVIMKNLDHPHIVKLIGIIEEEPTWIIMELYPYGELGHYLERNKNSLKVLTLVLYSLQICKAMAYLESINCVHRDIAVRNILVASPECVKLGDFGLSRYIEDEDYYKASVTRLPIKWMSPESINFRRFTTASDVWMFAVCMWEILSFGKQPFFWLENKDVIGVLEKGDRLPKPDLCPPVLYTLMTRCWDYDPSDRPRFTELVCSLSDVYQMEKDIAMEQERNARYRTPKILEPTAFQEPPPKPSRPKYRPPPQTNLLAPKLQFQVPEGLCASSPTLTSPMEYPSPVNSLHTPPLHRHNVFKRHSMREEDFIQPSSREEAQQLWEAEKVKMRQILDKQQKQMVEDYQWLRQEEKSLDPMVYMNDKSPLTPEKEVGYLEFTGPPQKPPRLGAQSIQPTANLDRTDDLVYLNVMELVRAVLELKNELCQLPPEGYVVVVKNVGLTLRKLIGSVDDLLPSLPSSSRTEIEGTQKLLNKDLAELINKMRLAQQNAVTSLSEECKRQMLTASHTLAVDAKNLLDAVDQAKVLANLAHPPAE

Kit = biological target: T8, Kit (Homo sapiens, UniProt P10721); assay: AlphaScreen kinase assay, Kit; settings: read-out: IC50, activity toward kinase Kit
T8 construct: P1332.N6 BI PTP KIT M552-K948-X COD; His6 (N); made in house; host or cells: E. coli (PTP1B co-expressed)
T8 sequence (P10721 with tags, fused parts or gaps): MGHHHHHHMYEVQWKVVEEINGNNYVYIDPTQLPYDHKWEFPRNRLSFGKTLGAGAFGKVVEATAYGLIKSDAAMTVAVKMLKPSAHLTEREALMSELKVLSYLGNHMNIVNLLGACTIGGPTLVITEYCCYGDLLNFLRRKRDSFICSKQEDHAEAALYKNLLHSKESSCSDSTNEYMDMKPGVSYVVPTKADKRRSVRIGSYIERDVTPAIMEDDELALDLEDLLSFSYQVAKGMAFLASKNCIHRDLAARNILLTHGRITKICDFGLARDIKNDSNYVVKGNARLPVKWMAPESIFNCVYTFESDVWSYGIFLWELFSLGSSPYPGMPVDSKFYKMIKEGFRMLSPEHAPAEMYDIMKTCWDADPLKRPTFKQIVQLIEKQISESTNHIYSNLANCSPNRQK

Src = biological target: T9, Src (Homo sapiens, UniProt P12931); assay: AlphaScreen kinase assay, Src; settings: read-out: IC50, activity toward kinase Src
T9 construct: P1144. pET-N6 BI-PTP SRC V86-L536-X; made in house

Fms = biological target: T10, Fms (Homo sapiens, UniProt P07333); assay: AlphaScreen kinase assay, Fms; settings: read-out: IC50, activity toward kinase Fms
T10 construct: purchased Upstate Biotechnology

Jnk3 = biological target: T11, Jnk3 (Homo sapiens, UniProt P53779); assay: AlphaScreen kinase assay, Jnk3; settings: read-out: IC50, activity toward kinase Jnk3
T11 construct: purchased Upstate Biotechnology
T11 sequence (P53779 whole entry): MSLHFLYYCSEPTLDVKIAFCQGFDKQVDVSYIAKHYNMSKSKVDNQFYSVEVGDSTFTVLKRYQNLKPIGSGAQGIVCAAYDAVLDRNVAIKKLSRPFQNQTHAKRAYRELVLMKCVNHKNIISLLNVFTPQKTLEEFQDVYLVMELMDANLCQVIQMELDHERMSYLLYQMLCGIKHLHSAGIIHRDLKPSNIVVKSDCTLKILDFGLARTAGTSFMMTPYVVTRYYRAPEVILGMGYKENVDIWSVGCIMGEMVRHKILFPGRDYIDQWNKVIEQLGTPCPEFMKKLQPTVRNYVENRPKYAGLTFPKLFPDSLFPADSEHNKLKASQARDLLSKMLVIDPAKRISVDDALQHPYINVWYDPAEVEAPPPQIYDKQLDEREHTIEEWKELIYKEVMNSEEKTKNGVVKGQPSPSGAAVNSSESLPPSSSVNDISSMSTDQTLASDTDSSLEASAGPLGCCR

Jnk1 = biological target: T12, Jnk1 (Homo sapiens, UniProt P45983); assay: AlphaScreen kinase assay, Jnk1; settings: read-out: IC50, activity toward kinase Jnk1
T12 construct: purchased Upstate Biotechnology
T12 sequence (P45983 whole entry): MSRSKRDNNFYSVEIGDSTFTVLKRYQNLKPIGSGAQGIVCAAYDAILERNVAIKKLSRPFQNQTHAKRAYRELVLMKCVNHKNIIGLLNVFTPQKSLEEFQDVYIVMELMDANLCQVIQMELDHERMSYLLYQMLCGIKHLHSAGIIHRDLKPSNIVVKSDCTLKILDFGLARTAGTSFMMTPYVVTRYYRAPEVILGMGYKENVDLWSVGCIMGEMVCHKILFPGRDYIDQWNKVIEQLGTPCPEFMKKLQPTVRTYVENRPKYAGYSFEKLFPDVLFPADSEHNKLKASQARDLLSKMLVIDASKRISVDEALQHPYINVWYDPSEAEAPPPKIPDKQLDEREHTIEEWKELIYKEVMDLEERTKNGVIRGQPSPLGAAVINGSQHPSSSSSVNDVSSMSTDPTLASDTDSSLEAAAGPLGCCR

Fak = biological target: T13, Fak (Homo sapiens, UniProt Q05397); assay: AlphaScreen kinase assay, Fak; settings: read-out: IC50, activity toward kinase Fak
T13 construct: P1358.pFastBacHtb FAK S411-Q686-X; His6 with pFastBacHTb leader (TEV site) (N); made in house; host or cells: Sf9 (baculovirus)
Experimental: AlphaScreen assays were done using compounds dissolved in DMSO to a concentration of 20 mM. The compounds were diluted accordingly to the desired final concentrations in each sample well, using 1:3 serial dilution for a total of 8 concentration points. Plates were prepared such that each kinase reaction is 20 μl in 1× kinase buffer, 5% DMSO and 10 μM ATP. After incubation of the kinase reaction for 1 hour at room temperature, 5 μl of donor beads in stop buffer (50 mM EDTA in 1× kinase buffer) was added, the sample was mixed and incubated for 20 minutes at room temperature before adding 5 μl of acceptor beads in stop buffer. The samples were incubated for 60 minutes at room temperature and the signal per well was read on AlphaQuest reader.

Btk = biological target: T14, Btk (Homo sapiens, UniProt Q06187); assay: Z'-Lyte FRET kinase assay (Invitrogen), Btk; settings: read-out: IC50, activity toward kinase Btk
T14 construct: purchased Invitrogen (assay run by Invitrogen)

Measured: IC50

Akt3, sequence (Q9Y243 whole entry): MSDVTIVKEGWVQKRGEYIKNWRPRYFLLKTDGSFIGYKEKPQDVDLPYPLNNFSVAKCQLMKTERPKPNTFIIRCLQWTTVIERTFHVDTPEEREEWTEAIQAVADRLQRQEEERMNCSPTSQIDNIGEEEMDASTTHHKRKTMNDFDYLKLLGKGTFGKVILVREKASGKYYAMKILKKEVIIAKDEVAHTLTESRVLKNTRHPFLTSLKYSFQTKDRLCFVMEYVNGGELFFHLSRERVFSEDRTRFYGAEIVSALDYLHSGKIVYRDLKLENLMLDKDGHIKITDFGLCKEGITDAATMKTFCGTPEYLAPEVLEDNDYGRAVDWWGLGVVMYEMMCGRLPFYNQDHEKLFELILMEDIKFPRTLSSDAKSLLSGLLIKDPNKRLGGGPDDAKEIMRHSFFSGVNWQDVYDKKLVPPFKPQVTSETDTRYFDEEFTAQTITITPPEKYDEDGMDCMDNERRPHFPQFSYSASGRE

O=C(NCc1ccccc1)c1ccc(-c2c[nH]c3ncccc23)cc1 [Compound P-0278]
≤ 10 µM: Akt3 | Flt1

COC(c1ccc(NCc2ccc(Cl)cc2)nc1)c1c[nH]c2ncccc12 (stereo not shown) [Compound P-0307]
≤ 10 µM: Ret | Akt3 | c-Raf-1 | B-Raf V600E | B-Raf

COc1cccc(C(=O)c2c[nH]c3nccc(-c4cccc(C(N)=O)c4)c23)c1 [Compound P-0329]
≤ 10 µM: Ret | Akt3 | FGFR1

COc1ccc(-c2c[nH]c3ncccc23)cc1OC1CCCC1 [Compound P-0573]
≤ 10 µM: Akt3 | B-Raf V600E | MAP4K4

CN(C)c1cccc(Nc2ccnc3[nH]ccc23)c1 [Compound P-0861]
≤ 10 µM: Pyk2 | Akt3 | Kit | c-Raf-1 | B-Raf V600E | B-Raf

CCN(CC)c1ccc(Nc2ccnc3[nH]ccc23)cc1 [Compound P-0866]
≤ 10 µM: Pyk2 | Akt3 | Src | Kit | c-Raf-1 | B-Raf V600E | Flt1 | B-Raf

CN(C)c1ccc(Nc2ccnc3[nH]ccc23)cc1 [Compound P-0890]
≤ 10 µM: Akt3 | c-Raf-1

Clc1cccc(Nc2ccnc3[nH]ccc23)c1 [Compound P-0924]
≤ 10 µM: Pyk2 | Akt3 | Kit | c-Raf-1 | B-Raf

O=C(c1c(F)ccc(NS(=O)(=O)N2CCCCC2)c1F)c1c[nH]c2ncccc12 [Compound P-0952, Piperidine-1-sulfonic acid [2,4-difluoro-3-(1H-pyrrolo[2,3-b]pyridine-3-carbonyl)-phenyl]-amide]
≤ 10 µM: Akt3 | Fms | Src | Kit | c-Raf-1 | B-Raf V600E | B-Raf | FGFR1

Clc1ccc(Nc2ccnc3[nH]ccc23)cc1 [Compound P-0978]
≤ 10 µM: Pyk2 | Akt3 | Kit | c-Raf-1 | B-Raf

CCCOc1ccc(Nc2cnc3[nH]ccc3c2)cc1 [Compound P-1010]
≤ 10 µM: Pyk2 | Akt3 | Src | Kit | B-Raf V600E | Flt1 | Jnk3

CCOc1ccc(Nc2cnc3[nH]ccc3c2)cc1 [Compound P-1018]
≤ 10 µM: Pyk2 | Akt3 | Kit | B-Raf V600E | Flt1 | Jnk3 | FGFR1

COc1ccc(Nc2cnc3[nH]ccc3c2)cc1Cl [Compound P-1021]
≤ 10 µM: Jnk1 | Akt3 | Src | Kit | B-Raf V600E | Flt1 | Jnk3 | FGFR1

c1cc2cc(Nc3ccc4c(c3)OCCO4)cnc2[nH]1 [Compound P-1022]
≤ 10 µM: Akt3 | B-Raf V600E | Jnk3

CC(=O)c1cccc(Nc2ccnc3[nH]ccc23)c1 [Compound P-1027]
≤ 10 µM: Akt3 | c-Raf-1 | Flt1 | B-Raf | FGFR1

Fc1cccc(Nc2ccnc3[nH]ccc23)c1 [Compound P-1047]
≤ 10 µM: Akt3 | c-Raf-1

Clc1ccc(Nc2cnc3[nH]ccc3c2)cc1 [Compound P-1082]
≤ 10 µM: Akt3 | Kit | B-Raf V600E | Flt1 | Jnk3

Fc1ccc(Nc2ccnc3[nH]ccc23)cc1 [Compound P-1145]
≤ 10 µM: Akt3 | c-Raf-1

c1cc(Nc2ccc(-c3cnco3)cc2)c2cc[nH]c2n1 [Compound P-1147]
≤ 10 µM: Akt3 | Flt1

CCCS(=O)(=O)Nc1ccc(F)c(Cc2c[nH]c3ncc(C(C)C)cc23)c1F [Compound P-1288]
≤ 10 µM: Fak | Pyk2 | Jnk1 | Akt3 | Src | c-Raf-1 | B-Raf V600E | B-Raf | FGFR1

NC(=O)c1cccc(-c2cnc3[nH]cc(C(=O)c4ccc(O)cc4F)c3c2)c1 [Compound P-1459]
≤ 10 µM: Fak | Jnk1 | Akt3 | Fms | Btk | Src | B-Raf V600E | B-Raf | FGFR1
